Experiment [1] deals with phospho-SMAD2 (Ser 465/467) in A549 xenograft. As to the kind of experiment: A549 xenograft study, tumor phospho SMAD2. It counts as in vivo, mouse. To be noted: for phospho SMAD2 levels in tumor (normalized to GAPDH): 10, 50, 75, 100 mg/Kg; for inhibition at 10 mg/kg / inhibition at 50 mg/kg / inhibition at 75 mg/kg / inhibition at 100 mg/kg: Mus musculus, A549, oral gavage, 3 hours after administration, read-out: Percent of p-SMAD2 inhibition compared to vehicle control. The text has this:
To test compounds for in vivo on-target activity (ALK5/TGF-βR1 inhibition), a study was completed using an A549 murine xenograft model. This model was utilized since an ALK5 inhibitor is expected to reduce the amount of the key TGF-β signaling molecule phosphoSMAD2 in the A549 xenograft cells. The TGF-β mediated phosphorylation in A549 cells takes place at amino acid residue four hundred and sixty-five and four hundred and sixty-seven (both are serine residues).
Eight-week old, female athymic nude mice (Charles River) were injected with approximately four million A549 cells (ATCC, CCL-185). The cells employed were harvested and resuspended in plain RPMI media (no phenol red added) and matrigel (Fisher Scientific) at a one to one ratio. Injection comprised a two-hundred microliter sample injected into the right hind flank of each mouse. Resulting tumors were measured every three days by caliper and as tumors reached an average of one hundred and thirty millimeters cubed, mice were randomized in groups of three.
All compounds were resuspended in 1-Methyl-2-pyrrolidinone (10%) plus 20% Solutol in water (90%). Galunisertib was included as a positive control and given at seventy-five milligram per kilogram to three mice. The drug suspensions were sonicated for fifteen minutes to generate a fine particle suspension before being administered to a subject. Mice were dosed (per oral gavage) at dose levels of one hundred mg/Kg, seventy-five mg/Kg, fifty mg/Kg and ten mg/Kg with three mice in each group. A vehicle control group with three mice was used to establish the baseline level of phospho SMAD2 in the tumor xenograft. Three hours after drug administration, tumors were harvested and stored at negative eighty degrees Celsius until further processing. The phospho SMAD2 levels were determined using the BioPlex Pro anti phospho-SMAD2 (Ser 465/467) beads from Biorad and this signal was normalized using GAPDH levels from each sample (Milliplex MAP GAPDH beads, Sigma/Millipore). Tumors were processed according to kit instructions and beads analyzed using the MagPix instrument by Luminex.

For experiment [2], the system named is p-SMAD2 (Ser465/Ser467) in A549 xenograft. As to the kind of experiment: Longitudinal PK/PD analysis of p-SMAD2 in A549 xenograft mouse model (PD). It counts as in vivo. To be noted: 75 mg/kg single oral dose; for inhibition at 75 mg/kg: Mus musculus, A549, 4 hours post drug administration, read-out: inhibition of p-SMAD2 compared to the vehicle group. As for the experimental part: In this study, p-SMAD2 (Ser465/Ser467) and a housekeeping gene (GAPDH) were measured at six timepoints from zero (established using vehicle-treated animals) up to twenty-four hours post dose for a single drug dose of seventy-five milligrams per kilogram per subject (three subjects per dosing group).
For this study, xenografts were prepared and implanted in mice as follows. At five weeks of age, female athymic nude mice (purchased from Charles River) were injected with approximately 3.2 million A549 cells (ATCC, CCL-185). Cells were harvested and resuspended in plain RPMI media (no phenol red added) and Matrigel (Corning 356237) at a one-to-one ratio, and two hundred-microliters of the cell suspension were injected into the right hind flank of each mouse. Tumors were measured every three days by caliper, and as tumors reached an average of ninety millimeters cubed, mice were randomized in groups of three. Each of the test compounds (Ex-10 and Ex-11) was resuspended in 1-methyl-2-pyrrolidinone (Sigma, 494496) (10%) plus 20% Solutol (Sigma 42966) in water (90%). The drug suspensions were sonicated for fifteen minutes to generate a fine particle suspension before being given to the test subjects. Subjects were dosed (per oral gavage) with the suspension. A vehicle control group with three mice was used to establish the baseline and timepoint zero of phospho-SMAD-2 in the tumor xenograft. The test compounds were administered to the respective subject groups at seventy-five milligrams per kilogram. Samples were obtained post administration of test compounds at 20 minutes, one hour, two hours, four hours, and twenty-four hours. Tumors were harvested, snap frozen and stored at negative eighty degrees Celsius until further processing. Plasma was collected from all animals by collecting whole blood via cardiac puncture, followed by centrifugation in tubes containing EDTA (BD, microtainer tubes, 365974). A group of three mice receiving vehicle only served as the zero timepoint for both drug groups. The phospho-SMAD-2 levels were determined using the Bio-Plex Pro™ Phospho-Smad2 (Ser465/Ser467) Set (BioRad 171V50019M). The phospho-SMAD-2 levels were normalized to GAPDH (MILLIPLEX MAP GAPDH Total Magnetic Bead MAPmate™, Millipore 46-667MAG) levels from each sample. All analytes were analyzed in a multiplex fashion with the Bio-Plex Pro Cell Signaling Reagent Kit (BioRad 171304006M). Frozen tumor samples (fifteen to thirty milligrams) were lysed in 100 μl lysis buffer, processed in a bead mill tube, and centrifuged. The resulting lysate was used at 1:50 dilution for the assay according to the manufacturer's instructions. Bead suspension was analyzed using the Luminex system (MAGPIX).

Usually inhibition stands for the change of the read-out against control, counted positive when it falls.

Regarding `Cc1cccc2c(Nc3ccnc(Nc4ccc(N5CCOCC5)cc4)n3)cnnc12` [EX-10, N4-(8-methylcinnolin-4-yl)-N2-(4-morpholino-phenyl)-pyrimidine-2,4-diamine], in experiment [1], the “phospho SMAD2 levels in tumor (normalized to GAPDH)” value was “reduced the phopho SMAD2 levels (p-SMAD2) in a dose dependent fashion”, the inhibition at 10 mg/kg was found to be 33.5%, the inhibition at 50 mg/kg came to 78.3% and the inhibition at 100 mg/kg was found to be 84.8%. For the same compound, the inhibition at 75 mg/kg in experiment [1] (75 mg/Kg) was 74.8%. Also, in experiment [2], the “p-SMAD2 levels at 24 hours post drug administration” value is given as “rose back to baseline levels” and the inhibition at 75 mg/kg was 74.3%.

Take `Cc1cccc2c(Nc3ccnc(Nc4cccc(N5CCOCC5)c4)n3)cnnc12` [EX-11, N4-(8-methylcinnolin-4-yl)-N2-(3-morpholinophenyl)pyrimidine-2,4-diamine]: in experiment [1] (75 mg/Kg), the “observed level of p-SMAD2 as percent of vehicle-only group” value is reported as 7.5% and the inhibition at 75 mg/kg turned out to be 92.5%. In experiment [1], the “phospho SMAD2 levels in tumor (normalized to GAPDH)” value was “reduced the phopho SMAD2 levels (p-SMAD2) in a dose dependent fashion”, the inhibition at 10 mg/kg came out at 32.6%, the inhibition at 50 mg/kg was found to be 87.6% and the inhibition at 100 mg/kg is 90.1%. In addition, in experiment [2], the “p-SMAD2 levels at 24 hours post drug administration” value was “rose back to baseline levels” and the inhibition at 75 mg/kg stood at 92.3%.

Values taken from US11746103B2, “ALK-5 inhibitors and uses thereof” (Sumitomo Pharma Oncology, Inc., priority 2020, dated 2023).
